Experimental findings from ChEMBL document CHEMBL1132087, “New N-substituted 7-aminocephalosporanic acid derivatives as potential agents against Streptococcus pneumoniae. Synthesis and in vitro activity” (1999) are described below.

In brackets after ≈: the same amount, converted by molar mass.

Common to all, as to format: functional
Assay [1] deals with Streptococcus pneumoniae. The experiment in a line: In vitro antibacterial activity against the gram-positive bacteria, penicillin resistant Streptococcus pneumoniae (4629).
Assay [2] relates to Streptococcus pneumoniae. The experiment in a line: In vitro antibacterial activity against the gram-positive bacteria, penicillin resistant Streptococcus pneumoniae (4630).
Assay [3] has as its system Streptococcus pneumoniae. The assay can be described thus: In vitro antibacterial activity against the gram-positive bacteria, penicillin resistant Streptococcus pneumoniae (4635).
Assay [4] relates to Streptococcus pneumoniae. The experiment in a line: In vitro antibacterial activity against the gram-positive bacteria, penicillin resistant Streptococcus pneumoniae (4636).
Assay [5] relates to Streptococcus pneumoniae. The experiment in a line: In vitro antibacterial activity against the gram-positive bacteria, penicillin sensitive Streptococcus pneumoniae (3273).
Assay [6] concerns Streptococcus pneumoniae. The experiment in a line: In vitro antibacterial activity against the gram-positive bacteria, penicillin sensitive Streptococcus pneumoniae (3512).
Assay [7] relates to Staphylococcus aureus. The assay can be described thus: In vitro antibacterial activity against the gram-positive bacteria, penicillin resistant Staphylococcus aureus (2619).
Assay [8] deals with Staphylococcus aureus. The experiment in a line: In vitro antibacterial activity against the gram-positive bacteria, penicillin resistant Staphylococcus aureus (2672).
The test system of assay [9] is Staphylococcus aureus. The experiment in a line: In vitro antibacterial activity against the gram-positive bacteria, penicillin resistant Staphylococcus aureus (853).
Assay [10] deals with Staphylococcus aureus. The experiment in a line: In vitro antibacterial activity against the gram-positive bacteria, penicillin sensitive Staphylococcus aureus (3072).
Assay [11] concerns Staphylococcus aureus. The experiment in a line: In vitro antibacterial activity against the gram-positive bacteria, penicillin sensitive Staphylococcus aureus (663E).
Assay [12] relates to Streptococcus pyogenes. The experiment in a line: In vitro antibacterial activity against the gram-positive bacteria, erythromycin resistant Streptococcus pyogenes.
The subject of assay [13] is Streptococcus pneumoniae. The assay can be described thus: In vitro antibacterial activity against the gram-positive bacteria, penicillin sensitive Streptococcus pneumoniae (3272).
The subject of assay [14] is Staphylococcus aureus. The experiment in a line: In vitro antibacterial activity against the gram-positive bacteria, penicillin sensitive Staphylococcus aureus (3849).

In the case of `CC(=O)OCC1=C(C(=O)O)N2C(=O)[C@@H](NC(=O)CN(OCc3ccc(Cl)cc3)C(=O)c3ccccc3)C2SC1` (stereo partly specified), the MIC was found to be 8 µg/mL (≈ 13.9 µM) in assay [1]; 8 µg/mL (≈ 13.9 µM) in assay [2]; 8 µg/mL (≈ 13.9 µM) in assay [3]; 16 µg/mL (≈ 27.9 µM) in assay [4]; 0.12 µg/mL (≈ 0.209 µM) in assay [5]; 0.12 µg/mL (≈ 0.209 µM) in assay [6]. Besides, the minimal inhibitory concentration (MIC) in assay [7] came out at 2 µg/mL (≈ 3.48 µM); in assay [8], 8 µg/mL (≈ 13.9 µM); in assay [9], 2 µg/mL (≈ 3.48 µM); in [10], 0.5 µg/mL (≈ 0.871 µM); in [11], 0.5 µg/mL (≈ 0.871 µM); in [12] it was 0.12 µg/mL (≈ 0.209 µM). Further, the values for the minimal inhibitory concentration (MIC) in assay [13] and in assay [14] were 0.12 µg/mL (≈ 0.209 µM) and 1 µg/mL (≈ 1.74 µM), respectively.

On to `CC(=O)OCC1=C(C(=O)O)N2C(=O)[C@@H](NC(=O)CN(OCc3ccccc3)C(=O)c3ccccc3)C2SC1` (stereo partly specified), for which the minimum inhibitory concentration (MIC) stood at 8 µg/mL (≈ 14.8 µM) in [1]; 8 µg/mL (≈ 14.8 µM) in [2]; 8 µg/mL (≈ 14.8 µM) in assay [3]; 16 µg/mL (≈ 29.7 µM) in [4]; 0.06 µg/mL (≈ 0.111 µM) in [5]; 0.03 µg/mL (≈ 0.0556 µM) in assay [6]. Moreover, the MIC in assay [7] turned out to be 2 µg/mL (≈ 3.71 µM); in assay [8] it was 8 µg/mL (≈ 14.8 µM); in assay [9], 1 µg/mL (≈ 1.85 µM); in assay [10] it was 1 µg/mL (≈ 1.85 µM); in assay [11] it was 0.5 µg/mL (≈ 0.927 µM); in assay [12], 0.25 µg/mL (≈ 0.463 µM). Further, the minimum inhibitory concentration (MIC) in assay [13] was found to be 0.06 µg/mL (≈ 0.111 µM); in assay [14], 0.5 µg/mL (≈ 0.927 µM).

With `CO/N=C(\C(=O)N[C@@H]1C(=O)N2C(C(=O)O)=C(COC(N)=O)CS[C@H]12)c1ccco1` [CEFUROXIME], the minimal inhibitory concentration (MIC) was 32 µg/mL (≈ 75.4 µM) in [1]; 16 µg/mL (≈ 37.7 µM) in assay [2]; 32 µg/mL (≈ 75.4 µM) in [3]; 16 µg/mL (≈ 37.7 µM) in assay [4]; 0.25 µg/mL (≈ 0.589 µM) in [5]; 0.06 µg/mL (≈ 0.141 µM) in assay [6]. The minimal inhibitory concentration (MIC) is 2 µg/mL (≈ 4.71 µM) in assay [7]; 2 µg/mL (≈ 4.71 µM) in assay [8]; 2 µg/mL (≈ 4.71 µM) in assay [9]; 2 µg/mL (≈ 4.71 µM) in assay [10]; 1 µg/mL (≈ 2.36 µM) in assay [11]; 0.06 µg/mL (≈ 0.141 µM) in assay [12]. Besides, the values for the MIC in [13] and in assay [14] were 0.06 µg/mL (≈ 0.141 µM) and 1 µg/mL (≈ 2.36 µM), respectively.

For the compound `CC(=O)OCC1=C(C(=O)O)N2C(=O)[C@@H](NC(=O)CN(OCc3ccc(Cl)cc3)C(=O)Nc3ccccc3)C2SC1` (stereo partly specified), the minimum inhibitory concentration (MIC) in assay [1] was found to be 8 µg/mL (≈ 13.6 µM); in assay [2] it was 4 µg/mL (≈ 6.79 µM); in assay [3] it was 4 µg/mL (≈ 6.79 µM); in assay [4], 16 µg/mL (≈ 27.2 µM); in [5], 0.25 µg/mL (≈ 0.424 µM); in [6] it was 0.06 µg/mL (≈ 0.102 µM). For the same compound, the MIC is 1 µg/mL (≈ 1.7 µM) in assay [7]; 4 µg/mL (≈ 6.79 µM) in assay [8]; 1 µg/mL (≈ 1.7 µM) in assay [9]; 0.5 µg/mL (≈ 0.849 µM) in assay [10]; 0.5 µg/mL (≈ 0.849 µM) in assay [11]; 0.06 µg/mL (≈ 0.102 µM) in assay [12]. Further, the MIC in assay [13] came to 0.12 µg/mL (≈ 0.204 µM); in [14], 0.5 µg/mL (≈ 0.849 µM).
